Results taken from patent US8044198B2, “Sirtuin modulating compounds” (Sirtris Pharmaceuticals, Inc., priority 2005, dated 2011).

Molecular target: T1, SIRT1 (Homo sapiens, UniProt Q96EB6)
T1 sequence (Q96EB6 1-747): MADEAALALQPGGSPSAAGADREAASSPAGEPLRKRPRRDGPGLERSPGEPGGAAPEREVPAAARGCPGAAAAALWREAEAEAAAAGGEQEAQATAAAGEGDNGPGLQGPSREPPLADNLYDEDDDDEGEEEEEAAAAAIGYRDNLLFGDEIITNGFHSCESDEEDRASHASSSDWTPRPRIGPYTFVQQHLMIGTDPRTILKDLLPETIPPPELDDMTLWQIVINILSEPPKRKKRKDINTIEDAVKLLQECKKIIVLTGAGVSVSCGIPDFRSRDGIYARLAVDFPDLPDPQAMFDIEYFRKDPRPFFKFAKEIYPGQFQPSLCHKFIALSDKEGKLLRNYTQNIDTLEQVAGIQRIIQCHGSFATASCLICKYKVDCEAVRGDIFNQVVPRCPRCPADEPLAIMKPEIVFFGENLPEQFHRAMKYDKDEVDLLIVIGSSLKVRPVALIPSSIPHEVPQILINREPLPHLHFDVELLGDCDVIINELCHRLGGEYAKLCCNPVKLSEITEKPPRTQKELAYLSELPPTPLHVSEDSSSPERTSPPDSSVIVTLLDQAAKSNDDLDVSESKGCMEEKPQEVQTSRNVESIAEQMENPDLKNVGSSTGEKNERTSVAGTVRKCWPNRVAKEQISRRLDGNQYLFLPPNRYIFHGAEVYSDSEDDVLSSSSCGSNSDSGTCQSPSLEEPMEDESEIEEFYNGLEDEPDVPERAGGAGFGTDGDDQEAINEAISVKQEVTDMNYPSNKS
Test: SIRT1 mass spectrometry (MS) based deacetylation assay; on FOLD ACT. MS: test concentration or dose not given here
Assay type: biochemical
Conditions: for FOLD ACT. MS / EC50: Sirt1 activators; for FOLD ACT. MS: fold activation as determined by MS; for EC50: read-out: ED50 MS ASSAY

COc1cc(C(=O)Nc2ccccc2-c2cn3c(n2)CCCC3)cc(OC)c1OC [Compound 546]
FOLD ACT. MS: B (B (Fold Activation <250%))
EC50 (mass spectrometry assay): 5 to 50 µM

O=C(Nc1ccccc1-c1cn2c(n1)CCCC2)c1ccc2ccccc2n1 [Compound 547]
FOLD ACT. MS: B (B (Fold Activation <250%))
EC50 (mass spectrometry assay): < 5 µM

O=C(Nc1ccccc1-c1cn2c(n1)CCCC2)c1cnc2ccccc2n1 [Compound 548]
FOLD ACT. MS: B (B (Fold Activation <250%))
EC50 (mass spectrometry assay): < 5 µM

O=C(Nc1ccccc1-c1nc2ccccc2[nH]1)c1ccc2ccccc2n1 [Compound 556]
FOLD ACT. MS: A (A (Fold activation >250%))
EC50 (mass spectrometry assay): < 5 µM

COc1cc(C(=O)Nc2ccccc2-c2nc3ccccc3[nH]2)ccc1CN1CCNCC1 [Compound 558]
FOLD ACT. MS: A (A (Fold activation >250%))
EC50 (mass spectrometry assay): < 5 µM

COc1ccc(C(=O)Nc2ccc(-c3nc4ccncc4o3)s2)c(OC)c1 [Compound 561]
FOLD ACT. MS: B (B (Fold Activation <250%))
EC50 (mass spectrometry assay): < 5 µM

COc1cc(OC)cc(C(=O)Nc2ccc(-c3nc4ccncc4o3)s2)c1 [Compound 562]
FOLD ACT. MS: B (B (Fold Activation <250%))
EC50 (mass spectrometry assay): < 5 µM

COc1cc(C(=O)Nc2ccc(-c3nc4ccncc4o3)s2)cc(OC)c1OC [Compound 563]
FOLD ACT. MS: B (B (Fold Activation <250%))
EC50 (mass spectrometry assay): 5 to 50 µM

CS(=O)(=O)Nc1cccc(C(=O)Nc2cc(-c3nc4ncccc4o3)ccn2)c1 [Compound 566]
FOLD ACT. MS: B (B (Fold Activation <250%))
EC50 (mass spectrometry assay): 5 to 50 µM

COc1cc(C(=O)Nc2cc(-c3nc4ncccc4o3)ccn2)ccc1CN1CCCCC1 [Compound 571]
FOLD ACT. MS: B (B (Fold Activation <250%))
EC50 (mass spectrometry assay): 5 to 50 µM

COc1cc(C(=O)Nc2cc(-c3nc4ncccc4o3)ccn2)ccc1CN1CCCC1 [Compound 572]
FOLD ACT. MS: B (B (Fold Activation <250%))
EC50 (mass spectrometry assay): 51 to 100 µM

CCn1ccc(C(=O)Nc2ccccc2-c2nc3ncccc3o2)n1 [Compound 581]
FOLD ACT. MS: B (B (Fold Activation <250%))
EC50 (mass spectrometry assay): 5 to 50 µM

COc1cc(C(=O)Nc2ccccc2-c2nc3ncccc3o2)ccc1CN1CCCCC1 [Compound 585]
FOLD ACT. MS: B (B (Fold Activation <250%))
EC50 (mass spectrometry assay): 5 to 50 µM

COc1cc(C(=O)Nc2ccccc2-c2nc3ccccc3[nH]2)ccc1CN1CCCC1 [Compound 587]
FOLD ACT. MS: B (B (Fold Activation <250%))
EC50 (mass spectrometry assay): < 5 µM

COc1cc(C(=O)Nc2ccccc2-c2nc3cc(CN4CCNCC4)cnc3s2)cc(OC)c1OC [Compound 588]
FOLD ACT. MS: A (A (Fold activation >250%))
EC50 (mass spectrometry assay): 5 to 50 µM

COc1cc(OC)cc(C(=O)Nc2ccccc2-c2nc3cc(CN4CCNCC4)cnc3s2)c1 [Compound 589]
FOLD ACT. MS: A (A (Fold activation >250%))
EC50 (mass spectrometry assay): < 5 µM

O=C(Nc1ccccc1-c1nc2cc(CN3CCNCC3)cnc2s1)c1ccc2c(c1)OCO2 [Compound 590]
FOLD ACT. MS: B (B (Fold Activation <250%))
EC50 (mass spectrometry assay): 5 to 50 µM

Cc1ccc(C(=O)Nc2ccccc2-c2nc3cc(CN4CCNCC4)cnc3s2)cc1C [Compound 591]
FOLD ACT. MS: A (A (Fold activation >250%))
EC50 (mass spectrometry assay): < 5 µM

N#Cc1cccc(C(=O)Nc2ccccc2-c2nc3cc(CN4CCNCC4)cnc3s2)c1 [Compound 592]
FOLD ACT. MS: B (B (Fold Activation <250%))
EC50 (mass spectrometry assay): < 5 µM

CN(C)c1cccc(C(=O)Nc2ccccc2-c2nc3cc(CN4CCNCC4)cnc3s2)c1 [Compound 593]
FOLD ACT. MS: A (A (Fold activation >250%))
EC50 (mass spectrometry assay): < 5 µM

O=C(Nc1ccccc1-c1nc2cc(CN3CCNCC3)cnc2s1)c1ccc(F)c(F)c1 [Compound 594]
FOLD ACT. MS: B (B (Fold Activation <250%))
EC50 (mass spectrometry assay): 5 to 50 µM

O=C(Nc1ccccc1-c1nc2ccncc2s1)c1cc(C(F)(F)F)ccc1C(F)(F)F [Compound 596]
EC50 (mass spectrometry assay): < 5 µM

COc1ccc(OC(=O)Nc2ccccc2-c2nc3ccncc3s2)cc1 [Compound 597]
EC50 (mass spectrometry assay): < 5 µM

COc1ccc(NC(=S)Nc2cccc(-c3nc4ccncc4s3)c2)c(OC)c1 [Compound 599]
EC50 (mass spectrometry assay): < 5 µM

COc1ccc(NC(=S)Nc2cccc(-c3nc4ccncc4s3)c2)cc1OC [Compound 600]
EC50 (mass spectrometry assay): > 150 µM

O=C(Nc1ccccc1-c1cn2c(CN3CCOCC3)csc2n1)c1cnc2ccccc2n1 [Compound 617]
FOLD ACT. MS: A (A (Fold activation >250%))
EC50 (mass spectrometry assay): < 5 µM

O=C(Nc1ccccc1-c1cn2c(CN3CCCCC3)csc2n1)c1cnc2ccccc2n1 [Compound 618]
FOLD ACT. MS: B (B (Fold Activation <250%))
EC50 (mass spectrometry assay): < 5 µM

O=C(Nc1ccccc1-c1cn2c(CN3CCCC3)csc2n1)c1cnc2ccccc2n1 [Compound 619]
FOLD ACT. MS: B (B (Fold Activation <250%))
EC50 (mass spectrometry assay): < 5 µM

COc1cc(C(=O)Nc2ccccc2-c2cn3c(CN4CCCC4)csc3n2)cc(OC)c1OC [Compound 620]
FOLD ACT. MS: B (B (Fold Activation <250%))
EC50 (mass spectrometry assay): < 5 µM

O=C(Nc1ncccc1-c1cn2c(CN3CCOCC3)csc2n1)c1cnc2ccccc2n1 [Compound 621]
FOLD ACT. MS: A (A (Fold activation >250%))
EC50 (mass spectrometry assay): < 5 µM

O=C(Nc1ccccc1-c1nc2cc(CN3CCNCC3)cnc2s1)c1cnc2ccccc2n1 [Compound 622]
FOLD ACT. MS: A (A (Fold activation >250%))
EC50 (mass spectrometry assay): < 5 µM

O=C(Nc1ccccc1-c1cn2c(CN3CCNCC3)csc2n1)c1cc2ccccc2o1 [Compound 624]
FOLD ACT. MS: A (A (Fold activation >250%))
EC50 (mass spectrometry assay): < 5 µM

O=C(Nc1ccccc1-c1cn2c(CN3CCNCC3)csc2n1)c1cc(-c2ccccc2)ncn1 [Compound 625]
FOLD ACT. MS: A (A (Fold activation >250%))
EC50 (mass spectrometry assay): < 5 µM

O=C(Nc1ccccc1-c1cn2c(CN3CCN(Cc4ccccc4)CC3=O)csc2n1)c1cnc2ccccc2n1 [Compound 628]
FOLD ACT. MS: B (B (Fold Activation <250%))
EC50 (mass spectrometry assay): < 5 µM

COc1cc(C(=O)Nc2ccccc2-c2nc3ncccc3o2)ccc1CN1CCCC1 [Compound 629]
FOLD ACT. MS: A (A (Fold activation >250%))
EC50 (mass spectrometry assay): 5 to 50 µM

COc1cc(C(=O)Nc2ccccc2-c2nc3ncccc3o2)ccc1CN(C)C [Compound 630]
FOLD ACT. MS: A (A (Fold activation >250%))
EC50 (mass spectrometry assay): 5 to 50 µM

COc1cc(C(=O)Nc2ccccc2-c2nc3ncccc3o2)ccc1CN1CCOCC1 [Compound 631]
FOLD ACT. MS: B (B (Fold Activation <250%))
EC50 (mass spectrometry assay): < 5 µM

COc1cc(C(=O)Nc2ccccc2-c2nc3ncccc3o2)ccc1CN1CCN(C)CC1 [Compound 632]
FOLD ACT. MS: A (A (Fold activation >250%))
EC50 (mass spectrometry assay): 5 to 50 µM

N=C(Nc1ccc(Cl)cc1)Nc1cc(-c2nc3ncccc3o2)ccn1 [Compound 634]
FOLD ACT. MS: B (B (Fold Activation <250%))
EC50 (mass spectrometry assay): > 150 µM

COc1cc(NC(=N)Nc2cc(-c3nc4ncccc4o3)ccn2)cc(OC)c1OC [Compound 635]
FOLD ACT. MS: A (A (Fold activation >250%))
EC50 (mass spectrometry assay): > 150 µM

COc1cc(C(=O)Nc2cc(-c3nc4ncccc4o3)ccn2)ccc1CN1CCN(C)CC1 [Compound 637]
FOLD ACT. MS: B (B (Fold Activation <250%))
EC50 (mass spectrometry assay): > 150 µM

COc1cc(C(=O)Nc2cc(-c3nc4ncccc4o3)ccn2)ccc1CN1CCNCC1 [Compound 638]
FOLD ACT. MS: B (B (Fold Activation <250%))
EC50 (mass spectrometry assay): > 150 µM

CCn1ccc(C(=O)Nc2cc(-c3nc4ncccc4o3)ccn2)n1 [Compound 641]
FOLD ACT. MS: B (B (Fold Activation <250%))
EC50 (mass spectrometry assay): > 150 µM

COc1cc(C(=O)Nc2cc(-c3nc4ncccc4o3)ccn2)ccc1CN1CCOCC1 [Compound 642]
FOLD ACT. MS: B (B (Fold Activation <250%))
EC50 (mass spectrometry assay): > 150 µM

COc1cc(C(=O)Nc2cc(-c3nc4ncccc4o3)ccn2)ccc1CN1CCN(Cc2ccccc2)CC1 [Compound 643]
FOLD ACT. MS: B (B (Fold Activation <250%))
EC50 (mass spectrometry assay): 5 to 50 µM

Cc1cnc(C(=O)Nc2ccccc2-c2cn3c(CN4CCNCC4)csc3n2)cn1 [Compound 644]
FOLD ACT. MS: A (A (Fold activation >250%))
EC50 (mass spectrometry assay): 5 to 50 µM

O=C(Nc1ccccc1-c1cn2c(CN3CCNCC3)csc2n1)c1cnc2ccccc2c1 [Compound 645]
FOLD ACT. MS: A (A (Fold activation >250%))
EC50 (mass spectrometry assay): < 5 µM

O=C(Nc1ccccc1-c1nc2cc(CN3CCNCC3)cnc2s1)c1ccc2ccccc2n1 [Compound 646]
FOLD ACT. MS: A (A (Fold activation >250%))
EC50 (mass spectrometry assay): 5 to 50 µM

CN(C)CCOCc1csc2nc(-c3ccccc3NC(=O)c3cnc4ccccc4n3)cn12 [Compound 647]
FOLD ACT. MS: A (A (Fold activation >250%))
EC50 (mass spectrometry assay): < 5 µM

O=C(Nc1ccccc1-c1cn2c(CO)csc2n1)c1cnc2ccccc2n1 [Compound 648]
FOLD ACT. MS: B (B (Fold Activation <250%))
EC50 (mass spectrometry assay): < 5 µM

CN1CCN(C(=O)Cc2csc3nc(-c4ccccc4NC(=O)c4cnc5ccccc5n4)cn23)CC1 [Compound 649]
FOLD ACT. MS: A (A (Fold activation >250%))
EC50 (mass spectrometry assay): < 5 µM

CC(=O)N1CCN(Cc2csc3nc(-c4ccccc4NC(=O)c4cnc5ccccc5n4)cn23)CC1 [Compound 651]
FOLD ACT. MS: A (A (Fold activation >250%))
EC50 (mass spectrometry assay): < 5 µM

O=S(=O)(Nc1cc(-c2nc3ncccc3o2)ccn1)c1ccc(Cl)cc1 [Compound 652]
IC50 (Sirt1 Inhibitors, mass spectrometry assay): 51 to 100 µM
